Results taken from patent US12065399B2, “Arylsulfonamide derivatives” (Hoffmann-La Roche Inc., priority 2019, dated 2024).
pEC50: −log10 of the molar value. Structures can show the parent of a compound that is named as a salt.

Target: human mGlu4 receptor (Homo sapiens (Human), UniProt Q14833)
Test: Intracellular Ca2+ mobilization assay (FLIPR), mGlu4 NAM
Format: cell-based
Conditions: HEK-293 cells stably transfected with human mGlu4; inhibition of L-AP4 (EC80) response; IC50
Method: 2.1) Intracellular Ca^2+ Mobilization Assay (FLIPR)
A monoclonal HEK-293 cell line stably transfected with a cDNA encoding for the human mGlu4 receptor was generated. Cells were cultured according to standard protocols (Freshney, 2000) in Dulbecco's Modified Eagle Medium with high glucose supplemented with 1 mM glutamine, 10% (vol/vol) heat-inactivated bovine calf serum, penicillin/streptomycin, 50 μg/ml hygromycin and 15 μg/ml blasticidin (all cell culture reagents and antibiotics from Invitrogen, Basel, Switzerland).
About 24 hrs before an experiment, 5×10^4 cells/well were seeded in poly-D-lysine coated, black/clear-bottomed 96-well plates. The cells were loaded with 2.5 μM Fluo-4AM in loading buffer (1×HBSS, 20 mM HEPES) for 1 hr at 37° C. and washed five times with loading buffer. The cells were transferred into a Functional Drug Screening System 7000 (Hamamatsu, Paris, France), and 11 half logarithmic serial dilutions of test compound at 37° C. were added and the cells were incubated for 10-30 min. with on-line recording of fluorescence. Following this pre-incubation step, the agonist (2S)-2-amino-4-phosphonobutanoic acid (L-AP4) was added to the cells at a concentration corresponding to EC80 with on-line recording of fluorescence; in order to account for day-to-day variations in the responsiveness of cells, the EC80 of L-AP4 was determined immediately ahead of each experiment by recording of a full dose-response curve of L-AP4.
Responses were measured as peak increase in fluorescence minus basal (i.e. fluorescence without addition of L-AP4), normalized to the maximal stimulatory effect obtained with saturating concentrations of L-AP4. Graphs were plotted with the % maximal stimulatory using XLfit, a curve fitting program that iteratively plots the data using Levenburg Marquardt algorithm. The single site competition analysis equation used was y=A+((B-A)/(1+((x/C)D))), where y is the % maximal stimulatory effect, A is the minimum y, B is the maximum y, C is the IC50, x is the log 10 of the concentration of the competing compound and D is the slope of the curve (the Hill Coefficient). From these curves the IC50 (drug concentration at which 50% of the receptor activation achieved from the addition of L-AP4 in the experiment was inhibited), the Hill coefficient as well as the maximal response in % of the maximal stimulatory effect obtained with saturating concentrations of L-AP4 were calculated (see FIG. 1).

human mGlu4 receptor, sequence (Q14833 33-912): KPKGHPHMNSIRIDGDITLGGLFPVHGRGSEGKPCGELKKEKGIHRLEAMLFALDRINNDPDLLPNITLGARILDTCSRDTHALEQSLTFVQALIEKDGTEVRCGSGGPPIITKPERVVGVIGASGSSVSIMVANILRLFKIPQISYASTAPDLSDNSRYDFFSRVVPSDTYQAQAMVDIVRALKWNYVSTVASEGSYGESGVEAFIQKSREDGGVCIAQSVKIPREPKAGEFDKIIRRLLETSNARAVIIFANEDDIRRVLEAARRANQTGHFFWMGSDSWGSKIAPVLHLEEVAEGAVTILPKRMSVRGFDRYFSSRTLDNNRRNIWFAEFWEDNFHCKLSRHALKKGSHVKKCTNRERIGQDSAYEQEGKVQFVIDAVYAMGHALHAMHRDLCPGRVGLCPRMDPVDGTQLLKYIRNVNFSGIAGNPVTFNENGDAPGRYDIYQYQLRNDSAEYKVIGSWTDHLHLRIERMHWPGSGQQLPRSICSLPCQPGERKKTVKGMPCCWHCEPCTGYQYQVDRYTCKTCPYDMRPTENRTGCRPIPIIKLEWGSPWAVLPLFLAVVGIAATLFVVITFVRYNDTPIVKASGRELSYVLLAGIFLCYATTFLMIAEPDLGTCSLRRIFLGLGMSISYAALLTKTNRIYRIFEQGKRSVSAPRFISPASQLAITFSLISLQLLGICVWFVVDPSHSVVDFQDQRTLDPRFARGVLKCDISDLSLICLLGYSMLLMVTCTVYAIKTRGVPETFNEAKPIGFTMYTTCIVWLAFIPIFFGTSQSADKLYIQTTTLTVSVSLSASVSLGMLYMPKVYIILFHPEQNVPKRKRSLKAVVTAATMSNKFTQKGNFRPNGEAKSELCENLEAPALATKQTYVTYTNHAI

SMILES	pEC50
Cc1cc(F)c(C)c(S(=O)(=O)Nc2c(F)cc(C#Cc3cccc(Cl)c3)cc2F)c1 [Example 48, N-[4-[2-(3-chlorophenyl)ethynyl]-2,6-difluoro-phenyl]-3-fluoro-2,5-dimethyl-benzenesulfonamide]	5.90
O=S(=O)(Nc1c(F)cc(C#Cc2ccccc2)cc1F)c1cncc(Cl)c1 [Example 23, 5-chloro-N-[2,6-difluoro-4-(2-phenylethynyl)phenyl]pyridine-3-sulfonamide]	5.51
O=S(=O)(Nc1c(F)cc(C#Cc2ccccc2)cc1F)c1ccccc1Cl [Example 1, 2-chloro-N-[2,6-difluoro-4-(2-phenylethynyl)phenyl]benzenesulfonamide]	5.37
O=S(=O)(Nc1c(F)cc(C#Cc2ccccc2)cc1F)c1cccc(Cl)c1 [Example 8, 3-chloro-N-[2,6-difluoro-4-(2-phenylethynyl)phenyl]benzenesulfonamide]	5.23
O=S(=O)(Nc1c(F)cc(C#Cc2cncc(F)c2)cc1F)c1cccc(Cl)c1Cl [Example 13, 2,3-dichloro-N-[2,6-difluoro-4-[2-(5-fluoro-3-pyridyl)ethynyl]phenyl]benzenesulfonamide]	6.25
O=S(=O)(Nc1c(F)cc(C#Cc2ccccc2)cc1F)c1cccnc1Cl [Example 22, 2-chloro-N-[2,6-difluoro-4-(2-phenylethynyl)phenyl]pyridine-3-sulfonamide]	5.36
Cc1cc(F)c(C)c(S(=O)(=O)Nc2c(F)cc(C#Cc3cccc(O)c3)cc2F)c1 [Example 61, N-[2,6-difluoro-4-[2-(3-hydroxyphenyl)ethynyl]phenyl]-3-fluoro-2,5-dimethyl-benzenesulfonamide]	6.00
Cc1c(Cl)cccc1S(=O)(=O)Nc1c(F)cc(C#Cc2ccccc2)cc1F [Example 20, 3-chloro-N-[2,6-difluoro-4-(2-phenylethynyl)phenyl]-2-methyl-benzenesulfonamide]	5.97
O=S(=O)(Nc1c(F)cc(C#Cc2ccccc2)cc1F)c1cccnc1 [Example 7, N-[2,6-difluoro-4-(2-phenylethynyl)phenyl]pyridine-3-sulfonamide]	5.33
Cc1cc(F)c(C)c(S(=O)(=O)Nc2c(F)cc(C#Cc3cccc(F)c3)cc2F)c1 [Example 45, N-[2,6-difluoro-4-[2-(3-fluorophenyl)ethynyl]phenyl]-3-fluoro-2,5-dimethyl-benzenesulfonamide]	5.88
O=S(=O)(Nc1c(F)cc(C#Cc2ccccc2)cc1F)c1cc(Cl)ccc1Cl [Example 4, 2,5-dichloro-N-[2,6-difluoro-4-(2-phenylethynyl)phenyl]benzenesulfonamide]	5.47
Cc1cc(F)c(C)c(S(=O)(=O)Nc2c(F)cc(C#Cc3cncc(F)c3)cc2F)c1 [Example 38, N-[2,6-difluoro-4-[2-(5-fluoro-3-pyridyl)ethynyl]phenyl]-3-fluoro-2,5-dimethyl-benzenesulfonamide; 2,2,2-trifluoroacetic acid salt]	6.36
COc1cccc(C#Cc2cc(F)c(NS(=O)(=O)c3cc(C)cc(F)c3C)c(F)c2)c1 [Example 47, N-[2,6-difluoro-4-[2-(3-methoxyphenyl)ethynyl]phenyl]-3-fluoro-2,5-dimethyl-benzenesulfonamide]	5.98
COc1cccc(C#Cc2cc(F)c(NS(=O)(=O)c3cccc(Cl)c3C)c(F)c2)c1 [Example 42, 3-chloro-N-[2,6-difluoro-4-[2-(3-methoxyphenyl)ethynyl]phenyl]-2-methyl-benzenesulfonamide]	5.88
Cc1cc(F)c(C)c(S(=O)(=O)Nc2c(F)cc(C#Cc3cc(F)cc(F)c3)cc2F)c1 [Example 49, N-[4-[2-(3,5-difluorophenyl)ethynyl]-2,6-difluoro-phenyl]-3-fluoro-2,5-dimethyl-benzenesulfonamide]	6.04
Cc1ccc(Cl)c(S(=O)(=O)Nc2c(F)cc(C#Cc3ccccc3)cc2F)c1 [Example 19, 2-chloro-N-[2,6-difluoro-4-(2-phenylethynyl)phenyl]-5-methyl-benzenesulfonamide]	5.90
Cn1ccc(S(=O)(=O)Nc2c(F)cc(C#Cc3ccccc3)cc2F)n1 [Example 26, N-[2,6-difluoro-4-(2-phenylethynyl)phenyl]-1-methyl-pyrazole-3-sulfonamide]	4.80
COc1c(Cl)cccc1S(=O)(=O)Nc1c(F)cc(C#Cc2cncc(F)c2)cc1F [Example 15, 3-chloro-N-[2,6-difluoro-4-[2-(5-fluoro-3-pyridyl)ethynyl]phenyl]-2-methoxy-benzenesulfonamide]	6.11

SMILES	pEC50
Cn1nccc1S(=O)(=O)Nc1c(F)cc(C#Cc2ccccc2)cc1F [Example 25, N-[2,6-difluoro-4-(2-phenylethynyl)phenyl]-1-methyl-1H-pyrazole-5-sulfonamide]	5.97
Cc1nn(C)cc1S(=O)(=O)Nc1c(F)cc(C#Cc2ccccc2)cc1F [Example 41, N-[2,6-difluoro-4-(2-phenylethynyl)phenyl]-1,3-dimethyl-pyrazole-4-sulfonamide; 2,2,2-trifluoroacetic acid salt]	5.03
Cc1ncccc1S(=O)(=O)Nc1c(F)cc(C#Cc2ccccc2)cc1F [Example 29, N-[2,6-difluoro-4-(2-phenylethynyl)phenyl]-2-methyl-pyridine-3-sulfonamide]	5.54
O=S(=O)(Nc1c(F)cc(C#Cc2ccccc2)cc1F)c1cccc(Cl)c1Cl [Example 2, 2,3-dichloro-N-[2,6-difluoro-4-(2-phenylethynyl)phenyl]benzenesulfonamide]	5.77
Cc1c(C(F)(F)F)cccc1S(=O)(=O)Nc1c(F)cc(C#Cc2ccccc2)cc1F [Example 28, N-[2,6-difluoro-4-(2-phenylethynyl)phenyl]-2-methyl-3-(trifluoromethyl)benzenesulfonamide]	5.71
Cc1c(Cl)cccc1S(=O)(=O)Nc1c(F)cc(C#Cc2cncc(Cl)c2)cc1F [Example 55, 3-chloro-N-(4-((5-chloropyridin-3-yl)ethynyl)-2,6-difluorophenyl)-2-methylbenzenesulfonamide]	5.72
O=S(=O)(Nc1c(F)cc(C#Cc2ccccc2)cc1F)c1cccc(F)c1Cl [Example 17, 2-chloro-N-[2,6-difluoro-4-(2-phenylethynyl)phenyl]-3-fluoro-benzenesulfonamide]	6.13
Cc1cccc(C#Cc2cc(F)c(NS(=O)(=O)c3cc(C)cc(F)c3C)c(F)c2)c1 [Example 51, N-[2,6-difluoro-4-[2-(m-tolyl)ethynyl]phenyl]-3-fluoro-2,5-dimethyl-benzenesulfonamide]	5.85
Cc1c(F)cccc1S(=O)(=O)Nc1c(F)cc(C#Cc2ccccc2)cc1F [Example 37, N-[2,6-difluoro-4-(2-phenylethynyl)phenyl]-3-fluoro-2-methyl-benzenesulfonamide]	5.98
O=S(=O)(Nc1c(F)cc(C#Cc2ccccc2)cc1F)c1cccc2ncoc12 [Example 34, N-[2,6-difluoro-4-(2-phenylethynyl)phenyl]-1,3-benzoxazole-7-sulfonamide]	5.18
O=S(=O)(Nc1c(F)cc(C#Cc2ccccc2)cc1F)c1cccc(Cl)c1F [Example 35, 3-chloro-N-[2,6-difluoro-4-(2-phenylethynyl)phenyl]-2-fluoro-benzenesulfonamide]	5.79
O=S(=O)(Nc1c(F)cc(C#Cc2ccccc2)cc1F)c1ccccc1C(F)(F)F [Example 3, N-[2,6-difluoro-4-(2-phenylethynyl)phenyl]-2-(trifluoromethyl)benzenesulfonamide]	5.55
CC(C)(C)c1cnn(-c2cc(F)c(NS(=O)(=O)c3ccccc3Cl)c(F)c2)c1 [Example 58, N-[4-(4-tert-butylpyrazol-1-yl)-2,6-difluoro-phenyl]-2-chloro-benzenesulfonamide]	4.88
O=S(=O)(Nc1c(F)cc(C#Cc2ccccc2)cc1F)c1cccc(C(F)(F)F)c1Cl [Example 33, 2-chloro-N-[2,6-difluoro-4-(2-phenylethynyl)phenyl]-3-(trifluoromethyl)benzenesulfonamide]	5.68
Cc1cccc(S(=O)(=O)Nc2c(F)cc(C#Cc3ccccc3)cc2F)c1Cl [Example 16, 2-chloro-N-[2,6-difluoro-4-(2-phenylethynyl)phenyl]-3-methyl-benzenesulfonamide]	5.81
O=S(=O)(Nc1c(F)cc(C#Cc2ccccc2)cc1F)c1ccccc1F [Example 6, N-[2,6-difluoro-4-(2-phenylethynyl)phenyl]-2-fluoro-benzenesulfonamide]	5.33
O=S(=O)(Nc1c(F)cc(C#Cc2ccccc2)cc1F)c1cncc(F)c1 [Example 24, N-[2,6-difluoro-4-(2-phenylethynyl)phenyl]-5-fluoropyridine-3-sulfonamide]	5.69
